Read-outs that look alike come from different tables or passages of the source. Marks after values point to notes of the source that are not given here.

For series [1] the following is noted: rat, in vivo, po.
Series [2] relates to rats. As to conditions: rat, in vivo, po.
Series [3] is described as follows: In vitro plasma stability. Format: in vitro ADME. Conditions: rat plasma, 37° C., 30 minutes incubation, HPLC.
Excerpt: The compounds were extracted back into acetonitrile with rigorous vortex.
Series [4] relates to carrageenan-induced rat paw edema. Nature of the series: Carrageenan-induced rat paw edema. As to conditions: 75 mg/kg equivalent dose of aspirin, p.o. Format: in vivo. (In general: In the carrageenan paw model, swelling and tenderness develop within hours.)
Series [5] deals with MES-induced seizures. Nature of the series: Maximal Electroshock Test (MES), Test 1, mice i.p. It counts as in vivo. Conditions: for activity in MES model (in words): Test 1, mice i.p. Background: In the maximal electroshock model the usual endpoint is tonic extension of the hind limbs.
Series [6] relates to convulsant metrazol. Nature of the series: scMET, rats p.o. (Test 3). It counts as in vivo. As to conditions: Test 3, rats p.o. As for the experimental part:
Subcutaneous Metrazol Seizure Threshold Test (scMET): Subcutaneous injection of the convulsant metrazol produces clonic seizures in laboratory animals. […] Animals were pretreated with various doses of the test compound given by i.p. injection. At the previously determined Time to Peak Effect (TPE) of the test compound, the dose of metrazol which will produce convulsions in 97% of animals (CD97: 85 mg/kg in mice) was injected into a loose fold of skin in the midline of the neck. The animals were placed in isolation cages to minimize stress and observed for the next 30 minutes for the presence or absence of a seizure. An episode of clonic spasms, approximately […], of the fore and/or hind limbs, jaws, or vibrissae is taken as the end point.
Rats received test compounds orally.

Series [7] deals with rats. Nature of the series: Neurotoxicity, rats p.o. (Test 2 and Test 3).
Excerpt: Acute Toxicity—Minimal Motor Impairment (MMI): To assess a compound's undesirable side effects (toxicity), animals were monitored for overt signs of impaired neurological or muscular function.
Groups of at least 8 rats received various doses of the candidate compound until at least two points were established between the limits of 100 percent protection or toxicity and zero percent protection or minimal toxicity. The 95 percent confidence limits, slopes of the regression lines and standard errors of the slopes were calculated for each quantitative determination. Rats received test compounds orally.
This secondary evaluation determines the time to peak effect (TPE), neurotoxicity, median effective dose (ED50) and biological response.
The test system of another series is mice. Conditions: for toxicity (in words): Test 1, mice i.p.; for Rotorod Toxicity 0.5 h / Rotorod Toxicity 4.0 h: mice, i.p., symbol = dose with toxicity. Background: The rotarod test checks motor coordination on a turning rod.
The test system of series [8] is MES-induced seizures. Description: animal or person. Conditions: for ED50: Rattus norvegicus, po, MES model, at time of peak effect. Format: in vivo, rats.
Series [9] concerns convulsant metrazol. Description: Subcutaneous Metrazol Seizure Threshold Test (scMET), Test 1, mice i.p. It counts as in vivo. Conditions: Mus musculus, ip, symbol = dose with activity.
The mark [10] stands for this setting: Test 2, rats p.o., 30 mg/kg, 0.50 h.
Setting [11] is: Test 2, rats p.o., 30 mg/kg, 1.00 h.
[12] abbreviates: Test 2, rats p.o., 30 mg/kg, 2.00 h.
[13] abbreviates: Test 2, rats p.o., 30 mg/kg, 4.00 h.
[14] abbreviates: Test 3 time to peak effect, rats p.o., 30 mg/kg, 0.5 h.
Setting [15] is: Test 3 time to peak effect, rats p.o., 30 mg/kg, 1.0 h.
[16] abbreviates: Test 3 time to peak effect, rats p.o., 30 mg/kg, 2.0 h.
Where [17] appears, read: Test 3 time to peak effect, rats p.o., 30 mg/kg, 4.0 h.
Where [18] appears, read: 0.5 h, read-out: ScMET 0.5 h, mice, i.p., 0.5 h.
The mark [19] stands for this setting: 4 h, read-out: ScMET 4.0 h, mice, i.p., 4.0 h.

Consider `CC(=O)Oc1ccccc1C(=O)NCCSSCCO[N+](=O)[O-]` [I-C1-NOPD6], for which the “prodrug or salicylate found in plasma (in words)” value in [1] (35 mg/kg) was “neither the prodrug nor the salicylate was found in the plasma”. The “ulcers (in words)” value in the series on rats [2] (100 mg/kg) is reported as “none of the animals treated with the test compounds showed any signs of development of ulcers”.
As to `CC(=O)Oc1ccccc1C(=O)NC(=O)OCCSSCCO[N+](=O)[O-]` [I-C1-NOPD5A], in series [3], the “release of parent drug / conversion to salicylate (in words)” value is recorded as “converting to the expected metabolite (salicylate)”. For the same compound, the “ulcers (in words)” value in the series on rats [2] (200 mg/kg) is given as “none of the animals treated with the test compounds showed any signs of development of ulcers”. Besides, in series [4], the “anti-inflammatory activity (in words)” value is listed as “negligible anti-inflammatory activity”.
One may read the ED50 as the dose that gives a 50% effect, or the effect in half of the subjects. The low end stands for greater potency, the high end for weaker potency. Take `Nc1nc(NC(=O)OCCSSCCO)nnc1-c1cccc(Cl)c1Cl` [I-A1-PD4]: the “activity in MES model (in words)” value in the series on MES-induced seizures [5] is recorded as “active in MES”. The “MES (number of animal protected/number of animal tested)” value was “(1/7)” with MES-induced seizures [5] (mice, i.p., 0.5 h, 100 mg/kg (++)); “(2/5)” in the series on MES-induced seizures [5] (mice, i.p., 0.5 h, 300 mg/kg (+)); “(1/1)” in the series with MES-induced seizures [5] (mice, i.p., 4.0 h, 30 mg/kg (+++)); “(3/3)” in the series with MES-induced seizures [5] (mice, i.p., 4.0 h, 100 mg/kg (++)); “(1/1)” with MES-induced seizures [5] (mice, i.p., 4.0 h, 300 mg/kg (+)); 0/4 in the series on MES-induced seizures [8] (setting [10]). In addition, the “MES (number of animal protected/number of animal tested)” value is given as 1/4 with MES-induced seizures [8] (setting [11]); 3/4 with MES-induced seizures [8] (setting [12]); 4/4 in the series on MES-induced seizures [8] (setting [13]); 0/8 in the series on MES-induced seizures [8] (Test 3 ED50 quantification, rats p.o., 4 h, 1.9 mg/kg); 4/8 with MES-induced seizures [8] (Test 3 ED50 quantification, rats p.o., 4 h, 3.8 mg/kg); 4/8 with MES-induced seizures [8] (Test 3 ED50 quantification, rats p.o., 4 h, 7.5 mg/kg). Moreover, the “MES (number of animal protected/number of animal tested)” value is on record as 7/8 with MES-induced seizures [8] (Test 3 ED50 quantification, rats p.o., 4 h, 15 mg/kg); 7/8 in the series on MES-induced seizures [8] (Test 3 ED50 quantification, rats p.o., 4 h, 30 mg/kg); 4/4 in the series with MES-induced seizures [8] (Test 3 time to peak effect, rats p.o., 10 mg/kg, 4.0 h); 3/4 with MES-induced seizures [8] (Test 3 time to peak effect, rats p.o., 10 mg/kg, 6.0 h); 2/4 with MES-induced seizures [8] (Test 3 time to peak effect, rats p.o., 10 mg/kg, 8.0 h); 0/4 in the series on MES-induced seizures [8] (Test 3 time to peak effect, rats p.o., 10 mg/kg, 24 h). Also, the “MES (number of animal protected/number of animal tested)” value in the series on MES-induced seizures [8] (Test 3 time to peak effect, rats p.o., 30 mg/kg, 0.25 h) is reported as 2/4; in the series on MES-induced seizures [8] (setting [14]) it was 2/4; with MES-induced seizures [8] (setting [15]) it was 2/4; in the series on MES-induced seizures [8] (setting [16]), 2/4; in the series on MES-induced seizures [8] (setting [17]), 4/4. For the same compound, the “ScMET (50 mg/kg) (number of animal protected/number of animal tested)” value with convulsant metrazol [6] (0.25 h) was 1/4^f; in the series on convulsant metrazol [6] (0.5 h) it was 0/4; with convulsant metrazol [6] (1.0 h), 2/4; with convulsant metrazol [6] (2.0 h) it was 1/4^g; in the series with convulsant metrazol [6] (4.0 h), 0/4. Besides, the “Toxicity (number of animals exhibiting toxicity/number of animals tested)” value is 0/4 with rats [7] (setting [10]); 0/4 in the series with rats [7] (setting [11]); 0/4 in the series on rats [7] (setting [12]); 0/4 in the series with rats [7] (setting [13]); 0/4 (100) with rats [7] (Test 3, rats p.o., 100 mg/kg, 0.25 h); 0/4 (100) in the series with rats [7] (Test 3, rats p.o., 100 mg/kg, 0.5 h). The “Toxicity (number of animals exhibiting toxicity/number of animals tested)” value in the series on rats [7] (Test 3, rats p.o., 100 mg/kg, 1.0 h) was 0/4 (100); in the series with rats [7] (Test 3, rats p.o., 100 mg/kg, 2.0 h), 0/4 (100). The “toxicity (in words)” value in the series with mice is recorded as “no or mild toxicity”. In addition, the “Rotorod Toxicity 0.5 h” value with mice was “— (— = no activity or no toxicity at 300 mg/kg)”. In addition, in the series with mice, the “Rotorod Toxicity 4.0 h” value is given as “— (— = no activity or no toxicity at 300 mg/kg)”. In the series with MES-induced seizures [8] (rats p.o.), this compound displayed an ED50 of 6.55 mg/kg. The minimal effective dose in the series on convulsant metrazol [9] (setting [18]) and in the series on convulsant metrazol [9] (setting [19]) was greater than 300 mg/kg each time.
For `CC(=O)Oc1ccccc1C(=O)[N-]C(=O)OCCSSCCO[N+](=O)[O-].[Na+]` [I-C1-NOPD5B], the “bioavailability compared with parent drug (in words)” value in series [1] was “as bioavailable as its parent drug”. Also, in the series on rats [2] (200 mg/kg), the “ulcers (in words)” value is recorded as “none of the animals treated with the test compounds showed any signs of development of ulcers”.
For the compound `CCOC(=O)CC1(CNC(=O)OCCSSCCOC(=O)Nc2nnc(-c3cccc(Cl)c3Cl)c(N)n2)CCCCC1` [I-AA-MPD12], the minimal effective dose in the series on MES-induced seizures [5] (Mus musculus, ip, 0.5 h, read-out: MES 0.5 h, mice, i.p., 0.5 h, symbol = dose with activity) is greater than 300 mg/kg; with convulsant metrazol [9] (setting [18]) it was greater than 300 mg/kg; with convulsant metrazol [9] (setting [19]) it was greater than 300 mg/kg. The “activity in MES model (in words)” value with MES-induced seizures [5] is recorded as “active in MES”. Also, in the series on MES-induced seizures [5] (mice, i.p., 6 h (footnotes g, m; printed in 4.0 h column)), the “MES, at 6 hours after dosing” value is reported as “++ (++ = activity or toxicity at 100 mg/kg)”. Also, the “ScMET (50 mg/kg) (number of animal protected/number of animal tested)” value is recorded as 1/4 in the series with convulsant metrazol [6] (1.0 h); 0/4 in the series with convulsant metrazol [6] (2.0 h); 0/4 in the series with convulsant metrazol [6] (4.0 h); 1/4 with convulsant metrazol [6] (6.0 h); 2/4 in the series on convulsant metrazol [6] (8.0 h); 0/4 in the series on convulsant metrazol [6] (24 h). In addition, the “Toxicity (number of animals exhibiting toxicity/number of animals tested)” value is reported as 0/4 with rats [7] (setting [11]); 0/4 in the series on rats [7] (setting [12]); 0/4 in the series with rats [7] (setting [13]); 0/4 (50) in the series on rats [7] (Test 3, rats p.o., 50 mg/kg, 1.0 h); 0/4 (50) in the series on rats [7] (Test 3, rats p.o., 50 mg/kg, 2.0 h); 0/4 (50) in the series with rats [7] (Test 3, rats p.o., 50 mg/kg, 4.0 h). Further, the “Toxicity (number of animals exhibiting toxicity/number of animals tested)” value with rats [7] (Test 3, rats p.o., 50 mg/kg, 6.0 h) was 0/4 (50); with rats [7] (Test 3, rats p.o., 50 mg/kg, 8.0 h), 0/4 (50); in the series on rats [7] (Test 3, rats p.o., 50 mg/kg, 24 h), 0/4 (50). Besides, the “toxicity (in words)” value in the series on mice is listed as “no or mild toxicity”. The “Rotorod Toxicity 0.5 h” value in the series on mice was “— (— = no activity or no toxicity at 300 mg/kg)”. Moreover, the “Rotorod Toxicity 4.0 h” value in the series on mice is “— (— = no activity or no toxicity at 300 mg/kg)”. In the series on MES-induced seizures [8] (rats p.o.), the ED50 was 17.1 mg/kg. The “MES (number of animal protected/number of animal tested)” value is 0/4 in the series with MES-induced seizures [8] (setting [11]); 7/8 with MES-induced seizures [8] (Test 3 ED50 quantification, rats p.o., 6 h, 60 mg/kg); 1/4 in the series with MES-induced seizures [8] (Test 3 time to peak effect, rats p.o., 15 mg/kg, 8.0 h); 0/4 in the series with MES-induced seizures [8] (setting [14]); 0/4 in the series on MES-induced seizures [8] (setting [15]); 1/4 in the series on MES-induced seizures [8] (setting [16]). Further, the “MES (number of animal protected/number of animal tested)” value is 3/4 in the series with MES-induced seizures [8] (setting [17]); 4/4 in the series on MES-induced seizures [8] (Test 3 time to peak effect, rats p.o., 30 mg/kg, 8.0 h); 2/4 in the series with MES-induced seizures [8] (Test 3 time to peak effect, rats p.o., 30 mg/kg, 24 h).

For the origin of these results see patent US8354455B2, “Prodrugs containing novel bio-cleavable linkers” (Piramal Enterprises Limited and Apparao Satyam, priority 2004, dated 2013).
